Test system: HIV-IIIb (MT-4 cells)
Test: Test A: Antiviral Assays in MT4 Cells
Type: cell-based
Conditions: MT-4 cells infected with HIV-IIIb, 5 days of incubation, CellTiter-Glo readout
Experimental: The antiviral properties of a compound disclosed herein may be determined using Test A described below.
Test A: Antiviral Assays in MT4 Cells
For the antiviral assay utilizing MT-4 cells, 0.4 μL of […] test concentration of 3-fold serially diluted compound in DMSO was added to 40 μL of cell growth medium (RPMI 1640, 10% FBS, 1% penicillin/Streptomycin, 1% L-Glutamine, 1% HEPES) in each well of 384-well assay plates (10 concentrations) in quadruplicate.
1 mL aliquots of 2×10e6 MT-4 cells are pre-infected for 1 and 3 hrs respectively, @ 37° C. with 25 μL (MT4) or of either cell growth medium (mock-infected) or a fresh 1:250 dilution of an HIV-IIIb concentrated ABI stock (0.004 m.o.i. for MT4 cells). Infected and uninfected cells are diluted in cell growth medium and 35 μL of 2000 (for MT4) cells is added to each well of the assay plates.
Assay plates were then incubated in a 37° C. incubator. After 5 days of incubation, […] 2× concentrated CellTiter-Glo™ Reagent (catalog #G7573, Promega Biosciences, Inc., Madison, Wis.) was added to each well of the assay plate. Cell lysis was carried out by incubating at room temperature for 2-3 min and then chemiluminescence was read using the Envision reader (PerkinElmer).

SMILES | EC50 [nM] | EC50 (MT4, 120 h) [nM]
CCC(C)(C)O[C@H](C(=O)O)c1c(C)cc2nc(C)ccc2c1-c1ccc2c3c(ccnc13)CCO2 (atropisomer, axis not shown) [Example 45, (S)-2-((S)-5-(2,3-Dihydropyrano[4,3,2-de]quinolin-7-yl)-2,7-dimethylquinolin-6-yl)-2-(tert-pentyloxy)acetic acid] | 13200 | –
Cc1cc2nc(OCc3cccc(OC(F)(F)F)c3)ccc2c(-c2ccc3c4c(ccnc24)CCO3)c1[C@H](OC(C)(C)C)C(=O)O (atropisomer, axis not shown) [Example 14, (S)-2-tert-Butoxy-2-((R)-5-(2,3-dihydropyrano[4,3,2-de]quinolin-7-yl)-7-methyl-2-(3-(trifluoromethoxy)benzyloxy)quinolin-6-yl)acetic acid] | – | 217
CCCC(C)(C)O[C@H](C(=O)O)c1c(C)cc2nc(C)ccc2c1-c1ccc2c3c(ccnc13)CCO2 (atropisomer, axis not shown) [Example 40, (2S)-2-((S)-5-(2,3-Dihydropyrano[4,3,2-de]quinolin-7-yl)-2,7-dimethylquinolin-6-yl)-2-(2-methylpentan-2-yloxy)acetic acid] | 2760 | –
Cc1cc2nc(N)ccc2c(-c2ccc3c4c(ccnc24)CCO3)c1[C@H](OC(C)(C)C)C(=O)O (atropisomer, axis not shown) [Example 47, (S)-2-((R)-2-Amino-5-(2,3-dihydropyrano[4,3,2-de]quinolin-7-yl)-7-methylquinolin-6-yl)-2-tert-butoxyacetic acid] | – | 292
Cc1cc2c(ccc(=O)n2-c2cccc(NS(C)(=O)=O)c2)c(-c2ccc3c4c(ccnc24)CCO3)c1[C@H](OC(C)(C)C)C(=O)O (atropisomer, axis not shown) [Example 36, (S)-2-tert-Butoxy-2-((R)-5-(2,3-dihydropyrano[4,3,2-de]quinolin-7-yl)-7-methyl-1-(3-(methylsulfonamido)phenyl)-2-oxo-1,2-dihydroquinolin-6-yl)acetic acid] | – | 37400
Cc1cc2c(ccc(=O)n2Cc2cncnc2)c(-c2ccc3c4c(ccnc24)CCO3)c1[C@H](OC(C)(C)C)C(=O)O (atropisomer, axis not shown) [Example 25, (S)-2-tert-butoxy-2-((R)-5-(2,3-dihydropyrano[4,3,2-de]quinolin-7-yl)-7-methyl-2-oxo-1-(pyrimidin-5-ylmethyl)-1,2-dihydroquinolin-6-yl)acetic acid] | – | 472
Cc1cc2c(ccc(=O)n2Cc2cc(F)cc(C(F)(F)F)c2)c(-c2ccc3c4c(ccnc24)CCO3)c1[C@H](OC(C)(C)C)C(=O)O (atropisomer, axis not shown) [Example 27, (S)-2-tert-Butoxy-2-((R)-5-(2,3-dihydropyrano[4,3,2-de]quinolin-7-yl)-1-(3-fluoro-5-(trifluoromethyl)benzyl)-7-methyl-2-oxo-1,2-dihydroquinolin-6-yl)acetic acid] | – | 53.5
Cc1cc2c(ccc(=O)n2Cc2ccc(Oc3ccccc3)cc2)c(-c2ccc3c4c(ccnc24)CCO3)c1[C@H](OC(C)(C)C)C(=O)O (atropisomer, axis not shown) [Example 32, (S)-2-tert-Butoxy-2-((R)-5-(2,3-dihydropyrano[4,3,2-de]quinolin-7-yl)-7-methyl-2-oxo-1-(4-phenoxybenzyl)-1,2-dihydroquinolin-6-yl)acetic acid] | – | 3060
Cc1cc2c(ccc3cnnn32)c(-c2ccc3c4c(ccnc24)CCO3)c1[C@H](OC(C)(C)C)C(=O)O (atropisomer, axis not shown) [Example 55, (S)-2-tert-butoxy-2-((R)-6-(2,3-dihydropyrano[4,3,2-de]quinolin-7-yl)-8-methyl-[1,2,3]triazolo[1,5-a]quinolin-7-yl)acetic acid] | – | 78.4
Cc1cc2c(ccc(=O)n2Cc2cccnc2)c(-c2ccc3c4c(ccnc24)CCO3)c1[C@H](OC(C)(C)C)C(=O)O (atropisomer, axis not shown) [Example 22, (S)-2-tert-Butoxy-2-((R)-5-(2,3-dihydropyrano[4,3,2-de]quinolin-7-yl)-7-methyl-2-oxo-1-(pyridin-3-ylmethyl)-1,2-dihydroquinolin-6-yl)acetic acid] | – | 318
Cc1ccc2c(-c3ccc4c5c(ccnc35)CCO4)c([C@H](OC(C)(C)CCc3ccccc3)C(=O)O)c(C)cc2n1 (atropisomer, axis not shown) [Example 38, (2S)-2-((R)-5-(2,3-Dihydropyrano[4,3,2-de]quinolin-7-yl)-2,7-dimethylquinolin-6-yl)-2-(2-methyl-4-phenylbutan-2-yloxy)acetic acid] | – | 38.1
Cc1cc2c(ccc(=O)n2Cc2cccc(C(F)(F)F)c2)c(-c2ccc3c4c(ccnc24)CCO3)c1[C@H](OC(C)(C)C)C(=O)O (atropisomer, axis not shown) [Example 5, (S)-2-tert-Butoxy-2-((R)-5-(2,3-dihydropyrano[4,3,2-de]quinolin-7-yl)-7-methyl-2-oxo-1-(3-(trifluoromethyl)benzyl)-1,2-dihydroquinolin-6-yl)acetic acid] | – | 30.7
Cc1cc2c(ccc(=O)n2Cc2cccc3c2cnn3C)c(-c2ccc3c4c(ccnc24)CCO3)c1[C@H](OC(C)(C)C)C(=O)O (atropisomer, axis not shown) [Example 28, (S)-2-tert-Butoxy-2-((R)-5-(2,3-dihydropyrano[4,3,2-de]quinolin-7-yl)-7-methyl-1-((1-methyl-1H-indazol-4-yl)methyl)-2-oxo-1,2-dihydroquinolin-6-yl)acetic acid] | – | 45.8
Cc1cc2c(ccc(=O)n2CCCc2ccccc2)c(-c2ccc3c4c(ccnc24)CCO3)c1[C@H](OC(C)(C)C)C(=O)O (atropisomer, axis not shown) [Example 24, (S)-2-tert-Butoxy-2-((R)-5-(2,3-dihydropyrano[4,3,2-de]quinolin-7-yl)-7-methyl-2-oxo-1-(3-phenylpropyl)-1,2-dihydroquinolin-6-yl)acetic acid] | – | 687
CCCC(C)(C)O[C@H](C(=O)O)c1c(C)cc2nc(C)ccc2c1-c1ccc2c3c(ccnc13)CCO2 (atropisomer, axis not shown) [Example 39, (2S)-2-((R)-5-(2,3-Dihydropyrano[4,3,2-de]quinolin-7-yl)-2,7-dimethylquinolin-6-yl)-2-(2-methylpentan-2-yloxy)acetic acid] | 12.3 | –
CCC(C)(C)O[C@H](C(=O)O)c1c(C)cc2nc(C)ccc2c1-c1ccc2c3c(ccnc13)CCO2 (atropisomer, axis not shown) [Example 44, (S)-2-((R)-5-(2,3-Dihydropyrano[4,3,2-de]quinolin-7-yl)-2,7-dimethylquinolin-6-yl)-2-(tert-pentyloxy)acetic acid] | 11.7 | –
Cc1cc2c(ccc(=O)n2Cc2cccc(C(F)(F)F)c2)c(-c2ccc(Cl)cc2)c1[C@H](OC(C)(C)C)C(=O)O [Example 7, (S)-2-tert-Butoxy-2-(5-(4-chlorophenyl)-7-methyl-2-oxo-1-(3-(trifluoromethyl)benzyl)-1,2-dihydroquinolin-6-yl)acetic acid] | – | 187
Cc1cc2nc(OCc3ccccc3S(C)(=O)=O)ccc2c(-c2ccc3c4c(ccnc24)CCO3)c1[C@H](OC(C)(C)C)C(=O)O (atropisomer, axis not shown) [Example 10, (S)-2-tert-Butoxy-2-((R)-5-(2,3-dihydropyrano[4,3,2-de]quinolin-7-yl)-7-methyl-2-(2-(methylsulfonyl)benzyloxy)quinolin-6-yl)acetic acid] | – | 8.63
